“And” between values parts separate entries of the source, which are not always exact repeats. Equal values may be shown once. Read-outs that look alike come from different tables or passages of the source. A value given as a limit tells only on which side of the number the result lay.

One data set deals with T1, CDK2/Cyclin E1 (Homo sapiens, UniProt P24941).
T1 construct: enzyme activity assays utilize full-length human CDK2; GST (N); purchased Carna 04-165; host or cells: baculovirus expression system
Kind of data set: CDK2/Cyclin E1 HTRF enzyme activity assay. Type of data set: biochemical. The conditions noted are these: 1 mM ATP. The method, then: CDK2/Cyclin E1 enzyme activity assays utilize full-length human CDK2 co-expressed as N-terminal GST-tagged protein with FLAG-Cyclin E1 in a baculovirus expression system (Carna Product Number 04-165). Assays were conducted in white 384-well polystyrene plates in a final reaction volume of 8 μL. CDK2/Cyclin E1 (0.25 nM) was incubated with the compounds of the Examples (40 nL serially diluted in DMSO) in the presence of ATP (50 μM or 1 mM) and 50 nM ULight™-labeled eIF4E-binding protein 1 (THR37/46) peptide (PerkinElmer) in assay buffer (containing 50 mM HEPES pH 7.5, 1 mM EGTA, 10 mM MgCl2, 2 mM DTT, 0.05 mg/mL BSA, and 0.01% Tween 20) for 60 minutes at room temperature. The reactions were stopped by the addition of EDTA and Europium-labeled anti-phospho-4E-BP1 antibody (PerkinElmer), for a final concentration of 15 mM and 1.5 nM, respectively. HTRF signals were read after 1 hour at room temperature on a PHERAstar FS plate reader (BMG Labtech). Data was analyzed with Genedata Screener software using a three or four parameter dose response curve to determine IC50 for each compound.

The target of the next data set is T2, P-gp (Homo sapiens, UniProt P08183).
T2 construct: in vitro permeability studies using Caco-2 cells; endogenous in cells; host or cells: Caco-2 cells
T2 sequence (P08183 whole entry): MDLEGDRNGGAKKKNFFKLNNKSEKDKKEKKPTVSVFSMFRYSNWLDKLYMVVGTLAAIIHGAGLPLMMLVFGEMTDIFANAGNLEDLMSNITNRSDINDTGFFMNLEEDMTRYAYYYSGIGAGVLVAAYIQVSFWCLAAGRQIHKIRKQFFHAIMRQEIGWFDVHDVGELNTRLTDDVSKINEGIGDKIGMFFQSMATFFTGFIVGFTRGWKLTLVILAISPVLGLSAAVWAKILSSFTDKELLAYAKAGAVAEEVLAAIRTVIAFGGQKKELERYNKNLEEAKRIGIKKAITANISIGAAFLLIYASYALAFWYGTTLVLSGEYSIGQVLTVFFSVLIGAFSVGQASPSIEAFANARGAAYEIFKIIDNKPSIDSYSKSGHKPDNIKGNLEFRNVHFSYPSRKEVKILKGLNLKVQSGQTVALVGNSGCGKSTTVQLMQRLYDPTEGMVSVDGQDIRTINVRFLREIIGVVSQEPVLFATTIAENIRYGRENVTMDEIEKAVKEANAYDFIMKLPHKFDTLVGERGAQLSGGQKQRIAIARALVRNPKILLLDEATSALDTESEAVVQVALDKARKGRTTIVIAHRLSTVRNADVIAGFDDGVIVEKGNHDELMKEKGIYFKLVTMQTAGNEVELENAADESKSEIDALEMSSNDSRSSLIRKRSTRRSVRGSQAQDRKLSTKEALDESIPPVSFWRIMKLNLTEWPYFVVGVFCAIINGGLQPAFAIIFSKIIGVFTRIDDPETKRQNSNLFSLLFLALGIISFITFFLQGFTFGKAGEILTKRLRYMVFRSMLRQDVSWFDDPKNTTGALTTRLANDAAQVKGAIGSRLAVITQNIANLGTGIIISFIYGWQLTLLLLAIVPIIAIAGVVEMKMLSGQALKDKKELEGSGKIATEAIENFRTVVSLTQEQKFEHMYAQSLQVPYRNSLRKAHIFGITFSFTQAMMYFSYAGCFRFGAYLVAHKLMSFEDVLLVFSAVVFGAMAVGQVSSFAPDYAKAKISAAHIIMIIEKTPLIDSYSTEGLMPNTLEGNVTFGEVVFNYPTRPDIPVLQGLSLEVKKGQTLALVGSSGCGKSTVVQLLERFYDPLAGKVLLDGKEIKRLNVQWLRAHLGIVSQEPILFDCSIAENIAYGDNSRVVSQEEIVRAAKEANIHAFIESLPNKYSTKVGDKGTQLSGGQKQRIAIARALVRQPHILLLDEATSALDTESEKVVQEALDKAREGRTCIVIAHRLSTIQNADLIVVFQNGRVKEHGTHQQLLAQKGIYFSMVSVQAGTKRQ
The data set is described as follows: Efflux transporter substrate assessment (Caco-2 studies), P-gp. The class given is in vitro ADME.

For the next data set, the target named is T3, BCRP (Homo sapiens, UniProt Q9UNQ0).
T3 construct: in vitro permeability studies using Caco-2 cells; endogenous in cells; host or cells: Caco-2 cells
T3 sequence (Q9UNQ0 1-655): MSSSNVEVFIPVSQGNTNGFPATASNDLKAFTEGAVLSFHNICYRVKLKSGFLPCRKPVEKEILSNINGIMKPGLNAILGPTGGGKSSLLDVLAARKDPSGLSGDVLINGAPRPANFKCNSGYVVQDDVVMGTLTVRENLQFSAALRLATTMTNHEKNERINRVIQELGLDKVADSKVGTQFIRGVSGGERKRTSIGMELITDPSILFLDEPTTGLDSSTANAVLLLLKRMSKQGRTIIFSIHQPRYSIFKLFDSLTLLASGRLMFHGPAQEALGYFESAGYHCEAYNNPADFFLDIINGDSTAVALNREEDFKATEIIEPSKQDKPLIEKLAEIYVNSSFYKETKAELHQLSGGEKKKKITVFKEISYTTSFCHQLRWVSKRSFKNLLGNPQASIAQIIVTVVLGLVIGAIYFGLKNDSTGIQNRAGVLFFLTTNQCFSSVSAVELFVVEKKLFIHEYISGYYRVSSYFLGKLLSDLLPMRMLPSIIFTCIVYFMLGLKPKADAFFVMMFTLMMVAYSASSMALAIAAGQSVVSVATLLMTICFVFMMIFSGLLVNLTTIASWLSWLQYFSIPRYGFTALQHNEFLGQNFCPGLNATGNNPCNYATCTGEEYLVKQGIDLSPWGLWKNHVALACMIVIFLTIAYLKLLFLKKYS
The data set is described as follows: Efflux transporter substrate assessment (Caco-2 studies), BCRP. The class given is in vitro ADME.

Data set [1] can be described thus: In vitro rat plasma unbound fraction. Type of data set: in vitro ADME.
The subject of a further data set is Caco-2 cells. The data set is described as follows: In vitro permeability studies using Caco-2 cells. Type of data set: in vitro ADME.
Data set [2] is described as follows: In vitro permeability studies using Caco-2 cells. Type of data set: in vitro ADME. The following applies: human, A-B.
Data set [3] is described as follows: In vivo rat CNS protocol: brain, CSF and plasma concentrations after IV dosing. The method, then: The brain, CSF, and plasma concentrations of the compound of Example 1 (8-isopropoxy-7-(1H-pyrazol-4-yl)-N-(tetrahydro-2H-pyran-4-yl)-[1,2,4]triazolo[1,5-c]pyrimidin-2-amine) were determined in rats after IV dosing. The compound of Example 1 was formulated in 10% dimethylacetamide in acidified saline. Male rats (n=4) were given an IV bolus of the compound of Example 1 at 2.0 mg/kg, followed by an IV infusion at 1.2 mg/kg/h for 4 hours. Blood samples were collected at 2 hours and 4 hours in tubes containing EDTA as anticoagulant and centrifuged to obtain plasma. At 4 hours, brain and CSF samples were also collected. The CSF samples were mixed with blank rat plasma (1:1 v/v) to minimize adsorption of the compound of Example 1 to the collection device. Brain, CSF, and plasma samples were frozen and concentrations of the compound of Example 1 were determined by LC-MS/MS.

The mark [4] stands for this setting: male rats (n=4), IV infusion, 4 h, mean ± SD.

Take `CC(Oc1c(-c2cn[nH]c2)ncn2nc(NC3CCOCC3)nc12)C(F)F` (single isomer, unassigned) [Example 9]: at CDK2/Cyclin E1, the IC50 was ≤ 10 nM.

For `CC(Oc1c(-c2cn[nH]c2)ncn2nc(NC3CCOCC3)nc12)C(F)F` (single isomer, unassigned) [Example 10], the IC50 at CDK2/Cyclin E1 was ≤ 10 nM.

On to `CC(Oc1c(-c2cn[nH]c2)ccn2nc(NC3CCOCC3)nc12)C(F)(F)F` (single isomer, unassigned) [Example 4], for which the IC50 on CDK2/Cyclin E1 is ≤ 10 nM.

In the case of `CC(C)Oc1c(-c2cn[nH]c2)ncn2nc(NC3CCOCC3)nc12` [Example 1, 8-Isopropoxy-7-(1H-pyrazol-4-yl)-N-(tetrahydro-2H-pyran-4-yl)-[1,2,4]triazolo[1,5-c]pyrimidin-2-amine], the IC50 on CDK2/Cyclin E1 was ≤ 10 nM. For the same molecule, the “substrate of P-gp efflux transporter” value at P-gp is on record as “not a substrate”. For the same molecule, on BCRP, the “substrate of BCRP efflux transporter” value is listed as “not a substrate”. The molecule also showed a fraction unbound in data set [1] of 0.57. In addition, in the data set on Caco-2 cells, the “Caco-2 permeability (in words)” value is recorded as “highly permeable”. This molecule had a Papp A→B in data set [2] of 16 ×10⁻⁶ cm/s. For the same molecule, the “Brain/Plasma (%)” value in data set [3] (4 h, individual rats 1001-1004) was 60% and 89% and 73%. Further, the “CSF/unbound plasma concentration (%)” value in data set [3] (4 h, individual rats 1001-1004) is 37% and 42% and 38%. Besides, in data set [3] (calculated using rat plasma in vitro unbound fraction, 4 h, individual rats 1001-1004), the “Plasma free (unbound) concentration, 4 h” value was 1.45 µM and 1.22 µM and 1.70 µM. Besides, the “Plasma total concentration, 4 h, mean” value in data set [3] (male rats (n=4), IV bolus 2.0 mg/kg then IV infusion 1.2 mg/kg/h for 4 h, 4 h, mean ± SD) turned out to be 2.41 ± 0.46 µM. In data set [3] (setting [4]), the “Brain concentration, 4 h, mean” value came out at 1740 ± 370 nM. Further, in data set [3] (setting [4]), the “CSF concentration, 4 h, mean” value is 0.579 ± 0.062 µM. In addition, in data set [3] (male rats, IV bolus 2.0 mg/kg then IV infusion 1.2 mg/kg/h for 4 h, 2 h, individual rats 1001-1004), the “Plasma total concentration, 2 h” value is 1.44 µM and 1.41 µM and 1.71 µM. Also, in data set [3] (male rats, IV bolus 2.0 mg/kg then IV infusion 1.2 mg/kg/h for 4 h, 4 h, individual rats 1001-1004), the “Plasma total concentration, 4 h” value is 2.55 µM and 2.14 µM and 2.98 µM. Also, the concentration at 4 h in data set [3] (male rats, IV infusion, 4 h, individual rats 1001-1004, read-out: Brain concentration, 4 h) is 1520 nM and 1910 nM and 2170 nM; in data set [3] (male rats, IV infusion, 4 h, individual rats 1001-1004, read-out: CSF concentration, 4 h) it was 541 nM and 517 nM and 653 nM; in data set [3] (male, rat, CSF, iv, male rats (n=4), IV infusion, 4 h, mean ± SD, read-out: CSF concentration, 4 h, mean), 579 ± 62 nM; in data set [3] (male, rat, CSF, iv, male rats, IV infusion, 4 h, individual rats 1001-1004, read-out: CSF concentration, 4 h) it was 604 nM; in data set [3] (male, rat, brain, iv, male rats (n=4), IV infusion, 4 h, mean ± SD, read-out: Brain concentration, 4 h, mean) it was 1740 ± 370 nM; in data set [3] (male, rat, brain, iv, male rats, IV infusion, 4 h, individual rats 1001-1004, read-out: Brain concentration, 4 h) it was 1360 nM. The concentration at 4 h in data set [3] (male, rat, plasma (unbound), intravenous, calculated using rat plasma in vitro unbound fraction, 4 h, individual rats 1001-1004, read-out: Plasma free (unbound) concentration, 4 h) was 1110 nM; in data set [3] (male, rat, plasma (unbound), intravenous, calculated using rat plasma in vitro unbound fraction, 4 h, mean ± SD, read-out: Plasma free (unbound) concentration, 4 h, mean), 1370 ± 260 nM; in data set [3] (male, rat, plasma, intravenous, male rats (n=4), IV bolus 2.0 mg/kg then IV infusion 1.2 mg/kg/h for 4 h, 4 h, mean ± SD, read-out: Plasma total concentration, 4 h, mean), 2410 ± 460 nM; in data set [3] (male, rat, plasma, intravenous, male rats, IV bolus 2.0 mg/kg then IV infusion 1.2 mg/kg/h for 4 h, 4 h, individual rats 1001-1004, read-out: Plasma total concentration, 4 h), 1950 nM. In addition, the Kp at 4 h in data set [3] (male, rat, CSF / unbound plasma, intravenous, 4 h, individual rats 1001-1004, read-out: CSF/unbound plasma concentration (%)) was 0.54; in data set [3] (male, rat, CSF / unbound plasma, intravenous, 4 h, mean, read-out: CSF/unbound plasma concentration (%), mean), 0.43; in data set [3] (male, rat, brain / plasma, intravenous, 4 h, individual rats 1001-1004, read-out: Brain/Plasma (%)) it was 0.7; in data set [3] (male, rat, brain / plasma, intravenous, 4 h, mean, read-out: Brain/Plasma (%), mean), 0.73. Further, the concentration at 2 h in data set [3] (male, rat, plasma, intravenous, male rats (n=4), IV bolus 2.0 mg/kg then IV infusion 1.2 mg/kg/h for 4 h, 2 h, mean ± SD, read-out: Plasma total concentration, 2 h, mean) turned out to be 1460 ± 180 nM; in data set [3] (male, rat, plasma, intravenous, male rats, IV bolus 2.0 mg/kg then IV infusion 1.2 mg/kg/h for 4 h, 2 h, individual rats 1001-1004, read-out: Plasma total concentration, 2 h), 1270 nM. Further, the “penetration across the rat blood-brain barrier (in words)” value in data set [3] (rat, IV infusion) is reported as “readily penetrates across the rat blood-brain barrier”.

For the molecule `CC(Oc1c(-c2cn[nH]c2)ccn2nc(NC3CCOCC3)nc12)C(F)F` (single isomer, unassigned) [Example 5], the IC50 against CDK2/Cyclin E1 was ≤ 10 nM.

As to `CC(C)Oc1c(-c2cn[nH]c2)ccn2nc(NC3CCOCC3)nc12` [Example 2, 8-Isopropoxy-7-(1H-pyrazol-4-yl)-N-(tetrahydro-2H-pyran-4-yl)-[1,2,4]triazolo[1,5-a]pyridin-2-amine], at CDK2/Cyclin E1, the IC50 is ≤ 10 nM.

For `CC(Oc1c(-c2cn[nH]c2)ccn2nc(NC3CCOCC3)nc12)C(F)(F)F` (single isomer, unassigned) [Example 3], the IC50 on CDK2/Cyclin E1 is ≤ 10 nM.

In the case of `CC(Oc1c(-c2cn[nH]c2)ncn2nc(NC3CCOCC3)nc12)C(F)(F)F` (single isomer, unassigned) [Example 8], the IC50 against CDK2/Cyclin E1 is ≤ 10 nM.

As for `CC(Oc1c(-c2cn[nH]c2)ncn2nc(NC3CCOCC3)nc12)C(F)(F)F` (single isomer, unassigned) [Example 7], on CDK2/Cyclin E1, the IC50 was ≤ 10 nM.

For the molecule `CC(Oc1c(-c2cn[nH]c2)ccn2nc(NC3CCOCC3)nc12)C(F)F` (single isomer, unassigned) [Example 6], the IC50 against CDK2/Cyclin E1 was ≤ 10 nM.

The values above are taken from patent US20240415840A1, “BICYCLIC AMINES AS CDK2 INHIBITORS” (Incyte Corporation, priority 2023, published 2024).
